PubChem BioAssay AID1745844 (Carcinogenic Potency Database (CPDB), 2022)
The source made the active and inactive calls. How the calls were made is not given here.

Tested on: rodent lifetime carcinogenesis bioassay, tumor incidence TD50
Assay: chronic cancer bioassays in animals – CPDB, compiled studies (AID 1745844)

With `O=CNNc1nc(-c2ccc([N+](=O)[O-])o2)cs1` the TD50 (hamster, strain Syrian Golden, males, in feed, site: forestomach, lesion: squamous-cell papilloma, dosed 48 weeks, study length 70 weeks) was 25.1 mg/kg/day, the TD50 (hamster, strain Syrian Golden, males, in feed, site: urinary bladder, lesion: transitional-cell carcinoma, dosed 48 weeks, study length 70 weeks) was 16.6 mg/kg/day and the TD50 (mouse, strain Swiss, females, in feed, site: all sites, lesion: leukemia, dosed 33 weeks, study length 52 weeks) was 25.6 mg/kg/day. The TD50 (mouse, strain Swiss, females, in feed, site: all sites, lesion: lymphocytic leukemia, dosed 33 weeks, study length 52 weeks) was 11.4 mg/kg/day, the TD50 (mouse, strain Swiss, females, in feed, site: any site (literature study), lesion: several types, types named in the paper, dosed 33 weeks, study length 52 weeks) was 2.42 mg/kg/day and the TD50 (mouse, strain Swiss, females, in feed, site: forestomach, lesion: papilloma, dosed 33 weeks, study length 52 weeks) was 13.8 mg/kg/day. The TD50 (mouse, strain Swiss, females, in feed, site: forestomach, lesion: squamous-cell papilloma, dosed 33 weeks, study length 52 weeks) was 8.85 mg/kg/day, the TD50 (mouse, strain Swiss, females, in feed, site: lung, lesion: alveolar-cell carcinoma, dosed 33 weeks, study length 52 weeks) was 67.1 mg/kg/day and the TD50 (rat, strain Buffalo, females, in feed, site: kidney, lesion: several types, types named in the paper, dosed 46 weeks, study length 64 weeks) was 17.5 mg/kg/day. It also gave a TD50 (rat, strain Buffalo, females, in feed, site: kidney, lesion: tubular adenoma, dosed 46 weeks, study length 64 weeks) of 98.6 mg/kg/day, a TD50 (rat, strain Buffalo, females, in feed, site: kidney, lesion: tubular-cell adenocarcinoma, dosed 46 weeks, study length 64 weeks) of 44.1 mg/kg/day and a TD50 (rat, strain Buffalo, females, in feed, site: liver, lesion: cystadenoma, dosed 46 weeks, study length 64 weeks) of 39.1 mg/kg/day. For the same compound, the TD50 (rat, strain Buffalo, females, in feed, site: mammary gland, lesion: adenocarcinoma, dosed 46 weeks, study length 64 weeks) was 13.1 mg/kg/day, the TD50 (rat, strain Buffalo, females, in feed, site: mammary gland, lesion: adenofibroma, dosed 46 weeks, study length 64 weeks) was 80.5 mg/kg/day and the TD50 (rat, strain Buffalo, females, in feed, site: mammary gland, lesion: several types, types named in the paper, dosed 46 weeks, study length 64 weeks) was 5.54 mg/kg/day. It also gave a TD50 (rat, strain Holtzman albino (Sprague-Dawley derived), females, in feed, site: cecum, lesion: adenocarcinoma, dosed 44 weeks, study length 60 weeks) of 210 mg/kg/day, a TD50 (rat, strain Holtzman albino (Sprague-Dawley derived), females, in feed, site: ear canal, lesion: squamous-cell carcinoma, dosed 44 weeks, study length 60 weeks) of 100 mg/kg/day and a TD50 (rat, strain Holtzman albino (Sprague-Dawley derived), females, in feed, site: kidney, lesion: adenoma, dosed 44 weeks, study length 60 weeks) of 17.6 mg/kg/day. For the same compound, the TD50 (rat, strain Holtzman albino (Sprague-Dawley derived), females, in feed, site: kidney, lesion: carcinoma, dosed 44 weeks, study length 60 weeks) was 78.5 mg/kg/day, the TD50 (rat, strain Holtzman albino (Sprague-Dawley derived), females, in feed, site: liver, lesion: hemangioendothelial sarcoma, dosed 44 weeks, study length 60 weeks) was 428 mg/kg/day (inactive) and the TD50 (rat, strain Holtzman albino (Sprague-Dawley derived), females, in feed, site: mammary tissue, wider than the gland, lesion: one or several types, types not named, dosed 44 weeks, study length 60 weeks) was 5.5 mg/kg/day. The TD50 (rat, strain Holtzman albino (Sprague-Dawley derived), females, in feed, site: small intestine, lesion: adenocarcinoma, dosed 44 weeks, study length 60 weeks) was 78.5 mg/kg/day, the TD50 (rat, strain Sprague-Dawley, females, in feed, site: all sites, lesion: lymphoblastic lymphoma, dosed 45 weeks, study length 75 weeks) was 184 mg/kg/day and the TD50 (rat, strain Sprague-Dawley, females, in feed, site: any site (literature study), lesion: several types, types named in the paper, dosed 45 weeks, study length 75 weeks) was 3.79 mg/kg/day. It also gave a TD50 (rat, strain Sprague-Dawley, females, in feed, site: forestomach, lesion: squamous-cell papilloma, dosed 45 weeks, study length 75 weeks) of 65.4 mg/kg/day, a TD50 (rat, strain Sprague-Dawley, females, in feed, site: kidney/pelvis, lesion: transitional-cell carcinoma, dosed 45 weeks, study length 75 weeks) of 137 mg/kg/day and a TD50 (rat, strain Sprague-Dawley, females, in feed, site: kidney, lesion: renal-cell carcinoma, dosed 45 weeks, study length 75 weeks) of 65.4 mg/kg/day. For the same compound, the TD50 (rat, strain Sprague-Dawley, females, in feed, site: kidney, lesion: several types, types named in the paper, dosed 46 weeks, study length 64 weeks) was 9.96 mg/kg/day, the TD50 (rat, strain Sprague-Dawley, females, in feed, site: kidney, lesion: tubular adenoma, dosed 46 weeks, study length 64 weeks) was 50.7 mg/kg/day and the TD50 (rat, strain Sprague-Dawley, females, in feed, site: kidney, lesion: tubular-cell adenocarcinoma, dosed 46 weeks, study length 64 weeks) was 33.9 mg/kg/day. For the same compound, the TD50 (rat, strain Sprague-Dawley, females, in feed, site: liver, lesion: cystadenoma, dosed 46 weeks, study length 64 weeks) was 43.9 mg/kg/day, the carcinogen call (rat, strain Sprague-Dawley, females, in feed, site: liver, lesion: one or several types, types not named, dosed 45 weeks, study length 75 weeks) was “negative (inactive)” and the TD50 (rat, strain Sprague-Dawley, females, in feed, site: liver, lesion: several types, types named in the paper, dosed 46 weeks, study length 64 weeks) was 30.1 mg/kg/day. For the same compound, the TD50 (rat, strain Sprague-Dawley, females, in feed, site: mammary gland, lesion: adenocarcinoma, dosed 45 weeks, study length 75 weeks) was 3.54 mg/kg/day, the TD50 (rat, strain Sprague-Dawley, females, in feed, site: mammary gland, lesion: adenocarcinoma, dosed 46 weeks, study length 64 weeks) was 19.5 mg/kg/day and the TD50 (rat, strain Sprague-Dawley, females, in feed, site: mammary gland, lesion: adenofibroma, dosed 46 weeks, study length 64 weeks) was 52.8 mg/kg/day. It also gave a TD50 (rat, strain Sprague-Dawley, females, in feed, site: mammary gland, lesion: several types, types named in the paper, dosed 46 weeks, study length 64 weeks) of 5.85 mg/kg/day, a TD50 (rat, strain Sprague-Dawley, males, in feed, site: kidney/pelvis, lesion: transitional-cell carcinoma, dosed 46 weeks, study length 64 weeks) of 69.9 mg/kg/day and a TD50 (rat, strain Sprague-Dawley, males, in feed, site: kidney, lesion: several types, types named in the paper, dosed 46 weeks, study length 64 weeks) of 5.82 mg/kg/day. It also gave a TD50 (rat, strain Sprague-Dawley, males, in feed, site: kidney, lesion: tubular adenoma, dosed 46 weeks, study length 64 weeks) of 47.6 mg/kg/day, a TD50 (rat, strain Sprague-Dawley, males, in feed, site: kidney, lesion: tubular-cell adenocarcinoma, dosed 46 weeks, study length 64 weeks) of 19.3 mg/kg/day and a TD50 (rat, strain Sprague-Dawley, males, in feed, site: liver, lesion: cystadenoma, dosed 46 weeks, study length 64 weeks) of 35.3 mg/kg/day. For the same compound, the TD50 (rat, strain Sprague-Dawley, males, in feed, site: mammary gland, lesion: adenofibroma, dosed 46 weeks, study length 64 weeks) was 46.2 mg/kg/day.

`CCC(C)=NO` was tested, and the TD50 (mouse, strain Charles River CD1, females, inhaled, site: liver, lesion: hepatocellular adenoma, dosed 78 weeks, study length 78 weeks) was 2440 mg/kg/day, the TD50 (mouse, strain Charles River CD1, females, inhaled, site: lung, lesion: adenoma, dosed 78 weeks, study length 78 weeks) was 5880 mg/kg/day and the TD50 (mouse, strain Charles River CD1, males, inhaled, site: liver, lesion: hepatocellular adenoma, dosed 78 weeks, study length 78 weeks) was 1460 mg/kg/day. It also gave a TD50 (mouse, strain Charles River CD1, males, inhaled, site: liver, lesion: hepatocellular carcinoma, dosed 78 weeks, study length 78 weeks) of 810 mg/kg/day, a TD50 (mouse, strain Charles River CD1, males, inhaled, site: liver, lesion: several types, types named in the paper, dosed 78 weeks, study length 78 weeks) of 534 mg/kg/day and a TD50 (mouse, strain Charles River CD1, males, inhaled, site: lung, lesion: adenoma, dosed 78 weeks, study length 78 weeks) of 1100 mg/kg/day. It also gave a TD50 (rat, strain Fischer 344, females, inhaled, site: liver, lesion: hepatocellular adenoma, dosed 113 weeks, study length 113 weeks) of 804 mg/kg/day, a TD50 (rat, strain Fischer 344, males, inhaled, site: liver, lesion: hepatocellular adenoma, dosed 113 weeks, study length 113 weeks) of 118 mg/kg/day and a TD50 (rat, strain Fischer 344, males, inhaled, site: liver, lesion: hepatocellular carcinoma, dosed 113 weeks, study length 113 weeks) of 242 mg/kg/day. It also gave a TD50 (rat, strain Fischer 344, males, inhaled, site: liver, lesion: several types, types named in the paper, dosed 113 weeks, study length 113 weeks) of 74.5 mg/kg/day, a TD50 (rat, strain Fischer 344, males, inhaled, site: mammary gland, lesion: fibroadenoma, dosed 113 weeks, study length 113 weeks) of 346 mg/kg/day and a TD50 (rat, strain Fischer 344, males, inhaled, site: skin, lesion: fibroma, dosed 113 weeks, study length 113 weeks) of 84.8 mg/kg/day.

Work on `O=[O+][O-]` yielded a TD50 (mouse, strain B6C3F1, females, inhaled, site: lung, lesion: alveolar/bronchiolar adenoma + alveolar/bronchiolar carcinoma, dosed 105 weeks, study length 105 weeks) of 1.88 mg/kg/day, a TD50 (mouse, strain B6C3F1, females, inhaled, site: lung, lesion: alveolar/bronchiolar adenoma + alveolar/bronchiolar carcinoma, dosed 130 weeks, study length 130 weeks) of 2.09 mg/kg/day and a TD50 (mouse, strain B6C3F1, females, inhaled, site: lung, lesion: alveolar/bronchiolar adenoma, dosed 130 weeks, study length 130 weeks) of 1.78 mg/kg/day. The TD50 (mouse, strain B6C3F1, females, inhaled, site: lung, lesion: alveolar/bronchiolar carcinoma, dosed 105 weeks, study length 105 weeks) was 2.75 mg/kg/day, the TD50 (mouse, strain B6C3F1, females, inhaled, site: uterus, lesion: endometrial stromal polyp, dosed 105 weeks, study length 105 weeks) was 6.49 mg/kg/day and the TD50 (mouse, strain B6C3F1, males, inhaled, site: any site (literature study), lesion: several types, types named in the paper, dosed 104 weeks, study length 104 weeks) was 0.997 mg/kg/day. The TD50 (mouse, strain B6C3F1, males, inhaled, site: any site (literature study), lesion: several types, types named in the paper, dosed 130 weeks, study length 130 weeks) was 1.54 mg/kg/day, the TD50 (mouse, strain B6C3F1, males, inhaled, site: liver + mesentery + spleen, lesion: hemangiosarcoma, dosed 104 weeks, study length 104 weeks) was 0.314 mg/kg/day and the TD50 (mouse, strain B6C3F1, males, inhaled, site: liver, lesion: hepatocellular adenoma + hepatoblastoma + hepatocellular carcinoma, dosed 104 weeks, study length 104 weeks) was 1.68 mg/kg/day. The TD50 (mouse, strain B6C3F1, males, inhaled, site: liver, lesion: hepatocellular adenoma + hepatoblastoma + hepatocellular carcinoma, dosed 130 weeks, study length 130 weeks) was 2.02 mg/kg/day, the TD50 (mouse, strain B6C3F1, males, inhaled, site: lung, lesion: alveolar/bronchiolar adenoma + alveolar/bronchiolar carcinoma, dosed 104 weeks, study length 104 weeks) was 0.894 mg/kg/day and the TD50 (mouse, strain B6C3F1, males, inhaled, site: lung, lesion: alveolar/bronchiolar adenoma + alveolar/bronchiolar carcinoma, dosed 130 weeks, study length 130 weeks) was 0.961 mg/kg/day. The TD50 (mouse, strain B6C3F1, males, inhaled, site: lung, lesion: alveolar/bronchiolar carcinoma, dosed 130 weeks, study length 130 weeks) was 0.633 mg/kg/day, the carcinogen call (rat, strain Fischer 344, females, inhaled, site: any site (literature study), lesion: several types, types named in the paper, dosed 104 weeks, study length 104 weeks) was “negative (inactive)” and the carcinogen call (rat, strain Fischer 344, females, inhaled, site: any site (literature study), lesion: several types, types named in the paper, dosed 124 weeks, study length 124 weeks) was “negative (inactive)”. For the same compound, the TD50 (rat, strain Fischer 344, males, inhaled, site: any site (literature study), lesion: several types, types named in the paper, dosed 105 weeks, study length 105 weeks) was 1.2 mg/kg/day, the TD50 (rat, strain Fischer 344, males, inhaled, site: any site (literature study), lesion: several types, types named in the paper, dosed 122 weeks, study length 124 weeks) was 0.138 mg/kg/day (inactive) and the TD50 (rat, strain Fischer 344, males, inhaled, site: liver, lesion: hepatocellular adenoma + hepatoblastoma + hepatocellular carcinoma, dosed 122 weeks, study length 124 weeks) was 2.41 mg/kg/day. The TD50 (rat, strain Fischer 344, males, inhaled, site: thyroid gland, lesion: c-cell adenoma + c-cell carcinoma, dosed 105 weeks, study length 105 weeks) was 0.0156 mg/kg/day (inactive), the TD50 (rat, strain Fischer 344, males, inhaled, site: thyroid gland, lesion: c-cell adenoma, dosed 105 weeks, study length 105 weeks) was 0.019 mg/kg/day and the TD50 (rat, strain Sprague-Dawley, males, inhaled, site: lung, lesion: adenoma, dosed 86 weeks, study length 86 weeks) was 0.204 mg/kg/day.
